22 molecules from patent US20220370453A1 (Storm Therapeutics Ltd, priority 2019, published 2022) can be followed below.

Experiment [1] addresses T1, BCDIN3D (Homo sapiens, UniProt Q7Z5W3).
T1 sequence (Q7Z5W3 1-292): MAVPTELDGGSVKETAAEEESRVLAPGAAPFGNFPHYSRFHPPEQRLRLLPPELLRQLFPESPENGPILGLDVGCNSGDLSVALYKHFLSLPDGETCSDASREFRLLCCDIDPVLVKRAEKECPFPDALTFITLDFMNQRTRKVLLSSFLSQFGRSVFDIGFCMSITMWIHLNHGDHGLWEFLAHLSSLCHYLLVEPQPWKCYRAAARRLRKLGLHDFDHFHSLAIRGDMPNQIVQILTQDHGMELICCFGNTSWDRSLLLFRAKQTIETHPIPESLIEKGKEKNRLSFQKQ
Briefly: BCDIN3D IC50 RFMS (RapidFire) assay with mini-helix. Type of experiment: biochemical. The settings on record: 25 nM enzyme. In outline: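 25 nM enzyme preincubated 10 min at room temperature with compound (1% DMSO) in 25 mM Tris pH 8.0, 10 mM DTT, 1 mM EDTA, 0.03% BSA. Reaction started with 0.2 μM mini-helix plus 6 μM SAM, run 1 h at 37 °C, quenched with TCA; SAH product quantified by RapidFire MS against isotopic SAH standards.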

Experiment [2] concerns the target T1, BCDIN3D. Briefly: BCDIN3D InCellPulse thermal stability assay in transfected A549 cells. The settings on record: heat shock 58° C. 15 min. Type of experiment: cell-based. In outline:
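A549 cells transiently expressing BCDIN3D N-terminally fused to ePL ProLabel tag, 1500 cells/well, pre-incubated 1 h at 37 °C with compound (0.6% DMSO). Heat shock 58 °C for 15 min; remaining soluble fusion detected by split β-galactosidase complementation luminescence.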

The mark [3] stands for this setting: mini-helix substrate 0.2 μM, SAM 6 μM.
Setting [4] is: transiently transfected A549 cells.
Setting [5] is: mini-helix 0.2 μM and SAM 6 μM as substrates, 1 hr at 37° C.
Setting [6] is: A549 cells transiently transfected with ePL-BCDIN3D, 1 h pre-incubation.

As usually defined, the IC50 is the concentration that inhibits the measured activity by half. Low values mean greater potency, high ones weaker potency.

Consider `Cn1ncc2c(Nc3ccc(C(F)(F)F)cc3)nc(NCC3(N)CCCC3)nc21` [Compound 3.18, 6-N-[(1-aminocyclopentyl)methyl]-1-methyl-4-N-[4-(trifluoromethyl)phenyl]pyrazolo[3,4-d]pyrimidine-4,6-diamine], for which the half-inhibitory concentration (IC50) came out at 88 nM at BCDIN3D [1] (setting [3]) and 335 nM against BCDIN3D [2] (setting [4]).

With `Cc1ccc(CNc2nc(N[C@H]3CCCC[C@H]3N)nc3c2cnn3C)cc1Cl` [Compound 7.02, 6-N-[(1S,2R)-2-aminocyclohexyl]-4-N-[(3-chloro-4-methylphenyl)methyl]-1-methylpyrazolo[3,4-d]pyrimidine-4,6-diamine], the IC50 at BCDIN3D [1] (setting [5]) was determined as 998 nM; at BCDIN3D [2] (setting [6]) it was 899 nM.

As for `Cn1ncc2c(Nc3ccc(C(F)(F)F)c(F)c3)nc(NCC3(N)CC3)nc21` [Compound 2.03, N6-[(1-aminocyclopropyl)methyl]-N4-[3-fluoro-4-(trifluoromethyl)phenyl]-1-methyl-pyrazolo[3,4-d]pyrimidine-4,6-diamine], the figures for the half-maximal inhibitory concentration (IC50) against BCDIN3D [1] (setting [3]) and against BCDIN3D [2] (setting [4]) were 20.7 nM and 282 nM, respectively.

For `Cc1ccc(CNc2nc(NCC(N)c3ccccc3)nc3c2cnn3C)cc1Cl` (centres unmarked) [Compound 4.03, 6-N-(2-amino-2-phenylethyl)-4-N-[(3-chloro-4-methylphenyl)methyl]-1-methylpyrazolo[3,4-d]pyrimidine-4,6-diamine], the figures for the IC50 against BCDIN3D [1] (setting [3]) and against BCDIN3D [2] (setting [4]) were 62.5 nM and 166 nM, respectively.

Consider `COc1ccc(Nc2nc(NCC3(N)CC3)nc3c2cnn3C)cc1` [Compound 2.33, 6-N-[(1-aminocyclopropyl)methyl]-4-N-(4-methoxyphenyl)-1-methylpyrazolo[3,4-d]pyrimidine-4,6-diamine], for which the IC50 against BCDIN3D [1] (setting [3]) was 327 nM; against BCDIN3D [2] (setting [4]) it was 3860 nM.

With `C[C@H](Nc1nc(NC[C@H](N)c2ccccc2)nc2c1cnn2C)C1CC1` [Compound 4.102, N6-[(2R)-2-amino-2-phenyl-ethyl]-N4-[(1S)-1-cyclopropylethyl]-1-methyl-pyrazolo[3,4-d]pyrimidine-4,6-diamine], the half-maximal inhibitory concentration (IC50) was 4380 nM against BCDIN3D [1] (setting [3]) and 2630 nM at BCDIN3D [2] (setting [4]).

For `COc1cc(Nc2nc(NCC3(N)CC3)nc3c2cnn3C)ccc1Cl` [Compound 2.41, 6-N-[(1-aminocyclopropyl)methyl]-4-N-(4-chloro-3-methoxyphenyl)-1-methylpyrazolo[3,4-d]pyrimidine-4,6-diamine], the half-inhibitory concentration (IC50) on BCDIN3D [1] (setting [3]) is 211 nM; on BCDIN3D [2] (setting [4]) it was 1610 nM.

For `Cn1ncc2c(Nc3ccc(C(F)(F)F)cc3)nc(N[C@H]3COC[C@H]3N)nc21` [Compound 1.36, N6-[(3R,4S)-4-aminotetrahydrofuran-3-yl]-1-methyl-N4-[4-(trifluoromethyl)phenyl]pyrazolo[3,4-d]pyrimidine-4,6-diamine], the half-inhibitory concentration (IC50) at BCDIN3D [1] (setting [5]) was 5660 nM; against BCDIN3D [2] (setting [6]), 10600 nM.

On to `Cn1ncc2c(NC3CC4(C3)CC(F)(F)C4)nc(NC[C@H](N)c3ccccc3)nc21` [Compound 4.94, N6-[(2R)-2-amino-2-phenyl-ethyl]-N4-(2,2-difluorospiro[3.3]heptan-6-yl)-1-methyl-pyrazolo[3,4-d]pyrimidine-4,6-diamine], for which the values for the concentration for half-maximal inhibition (IC50) at BCDIN3D [1] (setting [3]) and at BCDIN3D [2] (setting [4]) were 6.1 nM and 47 nM, respectively.

Regarding `Cn1ncc2c(Nc3cc(F)c(Cl)c(F)c3)nc(NCC3(N)CC3)nc21` [Compound 2.20, 6-N-[(1-aminocyclopropyl)methyl]-4-N-(4-chloro-3,5-difluorophenyl)-1-methylpyrazolo[3,4-d]pyrimidine-4,6-diamine], the IC50 on BCDIN3D [1] (setting [3]) is 179 nM; against BCDIN3D [2] (setting [4]), 887 nM.

Regarding `[2H]C([2H])([2H])n1ncc2c(Nc3ccc(C(F)(F)F)nc3)nc(NCC3(N)CC3)nc21` [Compound 2.50, N6-[(1-aminocyclopropyl)methyl]-1-(trideuteriomethyl)-N4-[6-(trifluoromethyl)-3-pyridyl]pyrazolo[3,4-d]pyrimidine-4,6-diamine], the IC50 against BCDIN3D [1] (setting [3]) turned out to be 344 nM; against BCDIN3D [2] (setting [4]), 2980 nM.

As for `Cn1ncc2c(NC3(C(C)(C)C)CC3)nc(NC[C@H](N)c3ccccc3)nc21` [Compound 4.79, N6-[(2R)-2-amino-2-phenyl-ethyl]-N4-(1-tert-butylcyclopropyl)-1-methyl-pyrazolo[3,4-d]pyrimidine-4,6-diamine], the IC50 against BCDIN3D [1] (setting [3]) was 2300 nM; at BCDIN3D [2] (setting [4]), 3200 nM.

Consider `Cn1ncc2c(Nc3ccc(OC(F)F)cc3)nc(NCC(C)(N)c3ccccc3)nc21` (centres unmarked) [Compound 4.15, 6-N-(2-amino-2-phenylpropyl)-4-N-[4-(difluoromethoxy)phenyl]-1-methylpyrazolo[3,4-d]pyrimidine-4,6-diamine], for which the IC50 came out at 69.4 nM against BCDIN3D [1] (setting [3]) and 295 nM on BCDIN3D [2] (setting [4]).

Turning to `CC(C)CNc1nc(NC[C@H](N)c2ccccc2)nc2c1cnn2C` [Compound 4.103, N6-[(2R)-2-amino-2-phenyl-ethyl]-N4-isobutyl-1-methyl-pyrazolo[3,4-d]pyrimidine-4,6-diamine], the values for the half-inhibitory concentration (IC50) at BCDIN3D [1] (setting [3]) and at BCDIN3D [2] (setting [4]) were 321 nM and 480 nM, respectively.

Turning to `[2H]C([2H])([2H])n1ncc2c(Nc3ccc(C(F)(F)F)cc3)nc(NCC3(N)CC3)nc21` [Compound 2.49, N6-[(1-aminocyclopropyl)methyl]-1-(trideuteriomethyl)-N4-[4-(trifluoromethyl)phenyl]pyrazolo[3,4-d]pyrimidine-4,6-diamine], the IC50 came out at 50 nM at BCDIN3D [1] (setting [3]) and 379 nM against BCDIN3D [2] (setting [4]).

With `COc1cccc(-c2ccc(Nc3nc(NCCN)nc4c3cnn4C)cc2)c1` [Compound 1.14, N6-(2-aminoethyl)-N4-{3′-methoxy-[1,1′-biphenyl]-4-yl}-1-methyl-1H-pyrazolo[3,4-d]pyrimidine-4,6-diamine], the 50% inhibitory concentration (IC50) was determined as 568 nM against BCDIN3D [1] (setting [5]) and 754 nM against BCDIN3D [2] (setting [6]).

As for `Cn1ncc2c(NC(C)(C)C)nc(NCC(N)c3ccc(C4CC4)cc3)nc21` (centres unmarked) [Compound 5.33, N6-[2-amino-2-(4-cyclopropylphenyl)ethyl]-N4-tert-butyl-1-methyl-1H-pyrazolo[3,4-d]pyrimidine-4,6-diamine], the half-maximal inhibitory concentration (IC50) on BCDIN3D [1] (setting [3]) is 130 nM; on BCDIN3D [2] (setting [4]), 150 nM.

Consider `Cn1ncc2c(NC(C)(C)C)nc(NC[C@H](N)c3ccc(F)cc3)nc21` [Compound 7.18, N6-[(2R)-2-amino-2-(4-fluorophenyl)ethyl]-N4-tert-butyl-1-methyl-1H-pyrazolo[3,4-d]pyrimidine-4,6-diamine], for which the IC50 at BCDIN3D [1] (setting [5]) came to 330 nM; against BCDIN3D [2] (setting [6]), 410 nM.

For the molecule `CNc1nc(NCC(N)c2ccccc2)nc2c1cnn2C` (centres unmarked) [Compound 4.36, 6-N-(2-amino-2-phenylethyl)-4-N,1-dimethylpyrazolo[3,4-d]pyrimidine-4,6-diamine], the figures for the IC50 on BCDIN3D [1] (setting [3]) and at BCDIN3D [2] (setting [4]) were 554 nM and 1860 nM, respectively.

For `Cn1ncc2c(NCC3CCC3F)nc(NC[C@H](N)c3ccccc3)nc21` (stereo partly drawn) [Compound 4.112, N6-[(2R)-2-amino-2-phenyl-ethyl]-N4-[(2-fluorocyclobutyl)methyl]-1-methyl-pyrazolo[3,4-d]pyrimidine-4,6-diamine], the values for the IC50 on BCDIN3D [1] (setting [3]) and against BCDIN3D [2] (setting [4]) were 164 nM and 439 nM, respectively.

As to `COc1ccc(-c2cccc(Nc3nc(NCCN)nc4c3cnn4C)c2)cc1` [Compound 1.15, N6-(2-aminoethyl)-N4-{4′-methoxy-[1,1′-biphenyl]-3-yl}-1-methyl-1H-pyrazolo[3,4-d]pyrimidine-4,6-diamine], the IC50 against BCDIN3D [1] (setting [5]) was found to be 541 nM; on BCDIN3D [2] (setting [6]), 1020 nM.

On to `Cn1ncc2c(NC3(C)CCC3)nc(NC[C@H](N)c3ccccc3)nc21` [Compound 4.84, N6-[(2R)-2-amino-2-phenyl-ethyl]-1-methyl-N4-(1-methylcyclobutyl)pyrazolo[3,4-d]pyrimidine-4,6-diamine], for which the IC50 against BCDIN3D [1] (setting [3]) worked out at 137 nM; against BCDIN3D [2] (setting [4]), 125 nM.
